Source: patent publication US4703110A, “Benzoic acid derivatives having a para substituent which is a substituted phenyl group connected by a linking radical; useful in neoplastic cell differentiation and diagnosis” (Shudo; Koichi, priority 1984, dated 1987)

Experiments:
[1] = tested on: human acute promyelocytic leukemia cells (HL-60); assay: Differentiation of HL-60 cells, morphological changes of nuclei (Wright-Giemsa); assay type: cell-based; details: HL-60, 4 days; test concentration not stated
Procedure: The HL-60 cells are cultured in plastic flasks in RPMI-1640 medium supplemented with 5% heat inactivated fetal calf serum and antibiotics (penicillin G and streptomycin). The cells (3×10^4 /ml) were cultured with a compound of the present invention for 4 days. Growth inhibition of the cells by the test compounds was determined by counting the number of cells by microscope and relative ratio was examined by taking the number of cells by control (without test compound) as 100%. The cells are fixed and stained with Wright-Giemsa to examine the morphological changes of the nuclei.

[2] = tested on: human acute promyelocytic leukemia cells (HL-60); assay: Reduction of nitro-blue tetrazolium (NBT) by treated HL-60 cells; assay type: cell-based; details: HL-60, 5 days incubation, TPA 200 ng/ml, 0.1% NBT, 20 minutes at 37° C.
Procedure: The biochemical activity of cells treated with the compound was measured as follows:
The cells after 5 days incubation are centrifuged and diluted with RPMI-1640 medium supplemented with 5% fetal calf serum, to provide a definite number of the cells. To the diluted cell suspension are then added 200 ng/ml of […] (TPA) and the resulting culture medium is then incubated for 20 minutes at 37° C. in the presence of 0.1% of NBT. Thus, the mature differentiated cells containing blue-black formazan is counted by microscopy, so that the ratio of the cells having the ability to reduce NBT, to total cells, can be calculated.

[3] = tested on: HL-60 transplanted to nude mice; assay: Treatment of nude mice transplanted with HL-60; assay type: in vivo, nude mouse (BALB/c, nu/nu); details: per os, 200 mg/kg/day, days 9, 14 and 17 after transplantation; measured 4, 6, 8 and 11 days after first administration
Procedure: A test of treatment of nude mice, to which HL-60 have been transplanted, with a compound of the present invention is performed as follows:
A test compound (e.g., p-(5,6,7,8-tetrahydro-5,5,8,8-tetramethyl-2-naphthylcarbamoyl)benzoic acid) is suspended in 10% (v/v) Tween 80 in a concentration of 10 mg/ml. Cells (5×10^7) of HL-60 were transplanted subcutaneously to a nude mouse (BALB/c, nu/nu female Nihon Clea).
At the end of days 9, 14 and 17 after the transplantation, 0.1 ml of the suspension per 10 g of body weight of mouse were administrated per os two times at intervals of 7 hours (200 mg/kg/day).

SMILES | Banded and Segmented Neutrophils [1] [%] | Myelocytes and Metamyelocytes [1] [%] | Promyelocytes [1] [%] | Reductivity of NBT [2] [%] | Tumor growth [3]
CCc1ccc(C(=O)C=Cc2ccc(C(=O)OC)cc2)cc1CC [H Et Et H H OCH3 drawing 7] | 8 | 54 | 38 | 72 | 
COC(=O)c1ccc(C2OC2c2ccc3c(c2)C(C)(C)CCC3(C)C)cc1 (stereo not shown) [H drawing 10 H H OCH3 drawing 9] | 18 | 63 | 19 | 78 | 
COC(=O)c1ccc(C2OC2(C)c2ccc3c(c2)C(C)(C)CCC3(C)C)cc1 (stereo not shown) [H drawing 10 H H OCH3 drawing 11] | 9 | 79 | 12 | 81 | 
CC1(C)CCC(C)(C)c2cc([N+]([O-])=Nc3ccc(C(=O)O)cc3)ccc21 [H drawing 12 H H OH drawing 13] | 7 | 53 | 40 | 70 | 
COC(=O)c1ccc(C2OC2c2cccc(C(C)(C)C)c2)cc1 (stereo not shown) [H tBu H H H OCH3 drawing 9] | 9 | 69 | 20 | 70 | 
CC(C)(C)c1cc(C(=O)C=Cc2ccc(C(=O)O)cc2)cc(C(C)(C)C)c1 [No. 8] | 16 | 82 | 2 | 95 | 
CC(C)(C)c1ccc(C(=O)C=Cc2ccc(C(=O)O)cc2)cc1 [No. 9] | 6 | 48 | 46 | 68 | 
CC1(C)CCC(C)(C)c2cc(C(=O)C=Cc3ccc(C(=O)O)cc3)ccc21 [No. 11] | 12 | 86 | 2 | 95 | 
COC(=O)c1ccc(C=CC(=O)c2ccc3c(c2)C(C)(C)CCC3(C)C)cc1 [No. 13] | 4 | 91 | 5 | 97 | 
CC(C)c1ccc(NC(=O)c2ccc(C(=O)O)cc2)cc1C(C)C [No. 30] | 11 | 82 | 7 | 90 | 
COC(=O)c1ccc(C(=O)Nc2ccc3c(c2)C(C)(C)CCC3(C)C)cc1 [No. 34] | 12 | 85 | 3 | 97 | 
CC1(C)CCC(C)(C)c2cc(NC(=O)c3ccc(C(=O)O)cc3)ccc21 [No. 35, p-(5,6,7,8-tetrahydro-5,5,8,8-tetramethyl-2-naphthylcarbamoyl)benzoic acid] | 19 | 78 | 3 | 98 | tumor growth was clearly suppressed
CC(C)c1ccc(N=Nc2ccc(C(=O)O)cc2)cc1C(C)C [No. 50] | 11 | 50 | 39 | 55 | 
COC(=O)c1ccc(N=Nc2ccc3c(c2)C(C)(C)CCC3(C)C)cc1 [No. 57] | 10 | 49 | 41 | 60 | 
CC1=C(/C=C/C(C)=C/C=C/C(C)=C/C(=O)O)C(C)(C)CCC1 [Retinoic acid, reference compound] | 4 | 71 | 25 | 75 | 
